Laboratory results as given in patent publication US11453640B2, “Small molecules for disrupting the super elongation complex and inhibiting transcription elongation for cancer therapy” (NORTHWESTERN UNIVERSITY, priority 2018, dated 2022).

Columns and labels:
MYC = assay: mRNA-seq of 293T cells after 24 hr treatment; assay type: cell-based, human
Source text: FIG. 6. SEC disruption targets MYC and MYC target genes. (A-B) Venn diagram of deregulated genes in 293T cells by KL-1 and KL-2. […] (C) Heat map showing the expression changes in response to SEC inhibitors, with differentially expressed canonical MYC targets, RNA splicing factors, and core SNRP assembly genes highlighted. […] Each cluster is represented by different colors and a circle node denotes each enriched term. (E) MA plots of RNA splicing and Hallmark MYC target genes in KL-2 treated, AFF1 and AFF4 co-depletion, and ELL2-depleted cells. […] The MYC genes, the PRMT5 gene, and genes encoding SEC components are denoted as red squares. (F) Western analysis of MYC protein levels in the MYC lowly expressed small cell lung cancer cell line […] and MYC-amplified small cell lung cancer cell line H2171. […] The SEC and MYC peaks were determined by MACS with a p-value cutoff at 1E-5. […] Both cell lines were treated with increasing concentrations of KL-1 and KL-2 for 3 days and the cell proliferation was measured with CellTiter-Glo luminescent cell viability assay (Promega) (n=3-6).
RNA-seq Analysis. […] Exonic reads were assigned to specific genes from Ensembl release 75 using Bioconductor package GenomicRanges countOverlaps. […] The total number of uniquely mapped reads was provided to edgeR for the calcNormFactors normalization rather than the default column sums. […]

MDA231-LM2 tumor = MDA231-LM2 tumor model in athymic nude mice; assay type: in vivo; conditions: 50 mg/kg once daily, 15 intraperitoneal injections
Description: FIG. 7. SEC disruptors delay tumor progression and improve survival of MDA231-LM2 tumor mice. (A) Schematic of the development of MDA231-LM2 tumors in athymic nude mice (Wang et al., 2017). 4×10^6 MDA231-LM2 cells were inoculated into the fat pads of nude mice. 17 days after injection, when the tumor reached 100 mm^3, mice were divided randomly into three groups. Drug treatments were performed with once daily with 50 mg/kg KL-1, 10 mg/kg KL-2 or PBS (vehicle) for a total of 15 intraperitoneal injections. (B-C) KL-1 and KL-2 delay the tumor growth in the MDA231-LM2 tumor mouse model. The average tumor sizes of the vehicle (n=6), KL-1 (n=7), and KL-2 (n=5) treated groups were plotted from day 5 to day 36 after inoculation (B). Representative tumors sizes are shown (C). […] A 2-way unpaired student's t-test was used for statistical analysis. (E) Kaplan-Meier survival curves of vehicle, KL-1, and KL-2 treated nude mice transplanted with 4×10^6MDA231-LM2 cells. 17 days after inoculation, vehicle (n=6), KL-1 (n=7), and KL-2 (n=5) were administered daily for 15 intraperitoneal injections. Mice were euthanized when the tumor size reached 1000 mm^3. Thep values were calculated using the log-rank test.
MDA231-LM2 Tumor Model. […] The tumor sizes were measured twice a week and the mice were euthanized when the tumor size reached 1000 mm^3.

## COc1cccc(C(=O)CC(=O)C(=O)Nc2cc(Cl)ccc2C)c1 [KL-1, N-(5-chloro-2-methylphenyl)-4-oxo-4-(3-methoxyphenyl)-2-oxobutanamide]
MYC
  MYC expression: led to decreased MYC expression
MDA231-LM2 tumor
  survival of the recipient mice: significantly extended survival
  tumor progression (tumor sizes): delayed tumor progression
